Assay results reported in ChEMBL document CHEMBL1152926, “Terpenoid constituents of Abies chensiensis with potential anti-inflammatory activity” (J Nat Prod, 2009).
≈ marks a conversion by molar mass, not a printed value.

What was measured:
RAW264.7 [1] = assay: Cytotoxicity against mouse RAW264.7 cells; assay type: cell-based
RAW264.7 [2] = assay: Antiinflammatory activity in mouse RAW264.7 cells assessed as inhibition of LPS-induced nitric oxide production; assay type: functional, cell-based

Row | SMILES | IC50 (RAW264.7 [1]) [µg/mL] | IC50 (RAW264.7 [2]) [µg/mL]
1 | C=C[C@@](C)(O)[C@H]1C[C@@H]2[C@@]3(C)CCCC(C)(C)[C@@H]3CC[C@@]2(C)O1 | 0.6 (≈ 1.96 µM) | 1.9 (≈ 6.2 µM)
2 | C=C[C@@](C)(O)CC[C@H]1C(=C)CC[C@H]2C(C)(C)CCC[C@]12C [MANOOL] | 32.3 (≈ 111 µM) | 9.6 (≈ 33 µM)
3 | CC1=CC(O)(C[C@@H](C)C2=CC[C@@]3(C)C4=C(CC[C@]23C)[C@@]2(C)CCC(=O)C(C)(C)[C@@H]2CC4)OC1=O (some centres not stated) [NEOABIESLACTONE E] | 20 (≈ 42.9 µM) | 9.1 (≈ 19.5 µM)
4 | N=C(N)NN [PIMAGEDINE] | – | 3.4 (≈ 45.9 µM)
